Bridges are numbered along the chain shown (N, C = ends). Where no end group is shown, it is not given here. [ ]: non-standard residue; d: D form.
Tests used:
[1] = tested on: Human placental-derived vascular endothelial cells; assay: Binding and internalization in angiogenic vascular endothelial cells; conditions: acid wash
Source text: Human placental-derived vascular endothelial cells were used to assay for cell binding of the somatostatin analog, ^125I-JIC-2D. The radioligand, a somatostatin analog, ^125I-JIC-2D, was made by solid phase peptide synthesis as described in U.S. Patent No. 5,597,894. This peptide has an amino acid sequence of the following: D-Lys-D-Tyr-D-Lys-D-Tyr-D-Lys-c[Cys-Phe-D-Trp-Lys-Thr-Cys]-Thr-NH2. The cells were obtained by growing discs of human placental veins in fibrinclots for 14 days. […] These discs and their angiogenic sprouts are harvested mechanically and dissociated by vortexing. The vein discs are then discarded and the endothelial cells pooled. Cells were harvested, counted with a hemocytometer, and resuspended in binding buffer (Minimum Essential Medium (MEM), 10 mM Hepes, 0.01 % BSA). A standard assay used 500,000 cells in 1 ml of binding buffer. […] At the termination of the experiment, the incubation medium was removed, the cells were rinsed twice with Hanks balanced salt solution (HBSS), and the radioactivity in the cells determined using a gamma counter. This level of radioactivity represents total binding, which includes both membrane-bound and internalized fractions. Specific binding was determined by calculating the difference in the levels of measured radioactivity without the unlabeled competitor minus the radioactivity with the unlabeled competitor. […]

[2] = tested on: IMR-32 cells; assay: Nuclear translocation (Percoll density gradient fractionation); type: cell-based, human
Experimental: The cells were washed twice in media at 4°C and resuspended in cold isotonic sucrose. The labeled cells were passed through a ball-bearing homogenizer three times to disrupt cell membranes while leaving approximately 95% of the cell nuclei intact, according to the method of Balch et al., Arch. Biochem. Biophys., vol. 240, p. […] The cell homogenate was mixed with Percoll to give a final concentration of […] Percoll and spun at 20,400 rpm in a Beckman 40.2 rotor for 45 min to generate a density gradient. Density marker beads (Pharmacia) were used to indicate density levels in the tube. The contents of the tube were fractionated in an ISCO Density Gradient Fractionator. The resulting tubes were assayed for content of radiolabeled somatostatin or analogs, DNA to indicate nuclei, protein, the plasma membrane marker 5'-nucleotidase, and the lysosome marker N-acetylglucosaminidase. The usual assumption was made that the radioactivity measured in fractions rich in a certain cell component was in fact associated with that component; e.g., the radioactivity measured in a fraction rich in plasma membrane was due to association of the radiolabeled compound with the plasma membrane.
The density distribution is represented by the triangles in the figures. Nuclear fractions were found in the density gradient represented by Tubes 12-15, and membrane fractions by Tubes 0-6. […] Radiodecaying nuclei will then ionize DNA, resulting in cellular damage.

Row | Substance | binding and internalization [1] | cellular distribution (membrane vs nuclear fractions) ([2]; 1 hr) | cellular distribution (membrane vs nuclear fractions) ([2]; 4 hr) | cellular distribution (membrane vs nuclear fractions) ([2]; 24 hr)
1 | [dK][dY][dK][dY][dK]CF[dW]KTCT-NH2 (disulfide 6-11) [^125I-JIC-2D] | the vast majority of the radioligand was internalized into the cell | – | – | –
2 | ^125I-somatostatin: radiolabeled native somatostatin (AGCKNFFWKTFTSC; disulfide 3-14 (inferred); ends not checked; also: 125I label, position not given here; UniProt P61278 103-116, looked up) | – | both membrane binding and small amounts of nuclear binding | the plasma membrane binding appeared to have peaked and the nuclear fraction was dissipating | essentially no plasma membrane or nuclear binding was seen
